Reference: patent publication US6825348B2, “Antiviral compounds” (Academia Sinica, priority 2002, dated 2004)
pKi: −log10 of the molar value. Values after ≈ are worked out from the molar mass of the structure shown. Read-outs that look alike come from different tables or passages of the source.

What was measured:
[1] = tested on: HIV-2 (LAV-2); experiment: Inhibition of HIV-2 cytopathogenicity in MT4 cells; type: cell-based, human immunodeficiency virus; details: Human immunodeficiency virus 2; MT4 cells, average of duplicates; read-out: IC50 HIV-2 (LAV-2)
[2] = tested on: Vero cells; experiment: Toxicity, morphological changes in Vero cells
[3] = tested on: HIV-1 (IIIB); experiment: microbe, parasite or virus in culture; type: cell-based; details: Human immunodeficiency virus 1, IIIB; MT4 cells, average of duplicates; read-out: IC50 HIV-1 (IIIB)
[4] = biological target: PRPP synthetase (UniProt P0A717); experiment: PRPP synthetase reaction, conversion to diphosphates and inhibition of AMP phosphorylation; type: biochemical; details: inhibition of AMP phosphorylation, 37° C., 15 min
Procedure: Enzymatic Conversion of Acyclic Nucleoside Phosphonates and Nucleotide 5′-Monophosphate Analog to Their Antivirally Active Diphosphates (Triphosphate Equivalents). Substrate affinities of acyclic nucleoside phosphonates 4, 20, 21, and dinucleotide analog 24 for PRPP synthetase as well as their inhibitory effect against the enzyme were evaluated according to the established procedures. See, e.g., Balzarini et al. (1991) J. Biol. Chem. 266: 8686-8689 and references cited therein. The assays were then terminated after 4 h by the addition of MeOH. HPLC on an anion-exchange Partisphere column was used to analyze the formation of […] 21pp, PMEApp, 4pp, 20pp, and 24pp.

[5] = tested on: MT4 cells; experiment: Toxicity toward MT4 cells
[6] = tested on: herpes simplex type 1 virus (HSV-1) (KOS); experiment: Inhibition of HSV-1 cytopathogenicity in Vero cell culture; type: cell-based; details: read-out: IC50 HSV-1 (KOS)
[7] = tested on: CEM cells; experiment: Toxicity toward CEM cells
[8] = biological target: T1, calf mucosal adenosine deaminase (ADA, EC 3.5.4.4) (Bos taurus, UniProt P56658); experiment: Substrate activity and competitive inhibition of adenosine deaminase; type: biochemical; details: for pKi: inhibition of ADA with ara-A 3 as substrate
T1 sequence (P56658 1-363): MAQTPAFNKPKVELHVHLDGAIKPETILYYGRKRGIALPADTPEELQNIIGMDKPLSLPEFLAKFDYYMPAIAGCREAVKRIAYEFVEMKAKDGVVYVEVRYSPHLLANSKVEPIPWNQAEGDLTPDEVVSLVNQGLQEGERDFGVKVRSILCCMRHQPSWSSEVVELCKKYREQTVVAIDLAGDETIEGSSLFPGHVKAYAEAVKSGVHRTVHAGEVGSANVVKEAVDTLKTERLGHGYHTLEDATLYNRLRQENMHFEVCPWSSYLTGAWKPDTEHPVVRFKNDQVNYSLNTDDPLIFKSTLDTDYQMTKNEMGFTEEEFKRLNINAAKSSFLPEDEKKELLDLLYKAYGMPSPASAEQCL

[9] = Lipophilicity, 1-octanol/water partition coefficient
[10] = tested on: HeLa cells; experiment: Toxicity, morphological changes in HeLa cells
[11] = Solubility in water (phosphate buffer, UV absorbance); details: pH 6.8, aqueous buffer, thermodynamic from solid
[12] = tested on: MSV; details: for mean day of animal death / percentage of MSV-infected mice alive at day 21 postinfection / percentage of MSV-infected mice without tumors at day 21 postinfection: two injections; for mean day of tumor initiation: two injections within two days
[13] = tested on: human cytomegalovirus (AD-169); experiment: Inhibition of HCMV cytopathogenicity in Vero cell culture; type: cell-based; details: Human betaherpesvirus 5, AD169; Vero cell culture; 50% inhibition of cytopathogenicity; for 1:1 mixtures IC50 refers to known antiviral drugs; read-out: IC50 HCMV (AD-169)
[14] = tested on: moloney murine sarcoma virus (MSV); experiment: Inhibition of MSV cytopathogenicity in CEM cells (cell-protection assay); type: cell-based; details: Moloney murine sarcoma virus, CCRF-CEM; CEM cells, average of duplicates; read-out: IC50 MSV
[15] = tested on: HSV-1 (KOS); experiment: Anti-HSV-1 activity in vivo, HSV-1-induced mortality in NMRI mice; details: 6 days; for mean day of animal death / mean day of symptom initiation: terminated day 21; for protection against HSV-induced mortality: 150 mg/kg dose level i.p.; for responders at 100 mg/kg / responders at 150 mg/kg / responders at 250 mg/kg: Human alphaherpesvirus 1, ip, 504 h
[16] = tested on: HeLa cells; details: human
[17] = tested on: thymidine kinase-positive (TK+) varicella-zoster virus (YS); experiment: Inhibition of TK+ VZV cytopathogenicity in Vero cell culture; type: cell-based
[18] = tested on: Vero cells; details: African green monkey
[19] = tested on: Snake venom phosphodiesterase; experiment: Activity of snake venom phosphodiesterase against nucleotide analogs; details: pH 9.2, 37° C., 8 h
[20] = tested on: thymidine kinase-deficient (TK−) varicella-zoster virus (YS/R); experiment: microbe, parasite or virus in culture; type: cell-based; details: Human alphaherpesvirus 3, Vero, read-out: IC50 TK−VZV (YS/R)
[21] = LD50 and toxicity in mice, intraperitoneal
[22] = Human alphaherpesvirus 1, Vero cell culture, 50% inhibition of virus-induced cytopathogenicity, mean of duplicates, for 1:1 (W/W) mixtures IC50 refers to known antiviral drugs
[23] = 100 mg/kg/day i.p., read-out: percentage of HSV-1-infected mice alive at day 21 postinfection
[24] = 100 mg/kg/day i.p., read-out: percentage of HSV-1-infected mice without symptoms at day 21 postinfection
[25] = 150 mg/kg/day i.p., read-out: percentage of HSV-1-infected mice alive at day 21 postinfection
[26] = 150 mg/kg/day i.p., read-out: percentage of HSV-1-infected mice without symptoms at day 21 postinfection
[27] = 250 mg/kg/day i.p., read-out: percentage of HSV-1-infected mice alive at day 21 postinfection
[28] = 250 mg/kg/day i.p., read-out: percentage of HSV-1-infected mice without symptoms at day 21 postinfection

Structure (SMILES)	IC50 [1] [µg/mL]	Vero cell, concentration causing microscopically visible change or disruption in about 50% of the cell sheet [2] [µg/mL]	IC50 [3] [µg/mL]	MT4 cell, concentration reducing the number of viable uninfected cells by 50% [5] [µg/mL]	CEM cell, concentration reducing the number of viable uninfected cells by 50% [7] [µg/mL]	ADA substrate / inhibitor property in words [8]	IC50 [13] [µg/mL]	IC50 [14] [µg/mL]	mean day of animal death ([15]; 100 mg/kg/day i.p.) [days]	mean day of symptom initiation ([15]; 100 mg/kg/day i.p.) [days]	mean day of animal death ([15]; 150 mg/kg/day i.p.) [days]	mean day of symptom initiation ([15]; 150 mg/kg/day i.p.) [days]	mean day of animal death ([15]; 250 mg/kg/day i.p.) [days]	mean day of symptom initiation ([15]; 250 mg/kg/day i.p.) [days]	responders at 100 mg/kg [15, 23] [%]	responders at 100 mg/kg [15, 24] [%]	responders at 150 mg/kg [15, 25] [%]	responders at 150 mg/kg [15, 26] [%]	responders at 250 mg/kg [15, 27] [%]	responders at 250 mg/kg [15, 28] [%]	also measured
Nc1ncnc2c1ncn2CCOCP(=O)(O)O [PMEA 4, 9-[2-(phosphonomethoxy)ethyl]adenine, reference compound]	3.8 (≈ 13.9 µM)	175	4.1 (≈ 15 µM)	274	285	neither a good substrate nor an inhibitor	15 (≈ 54.9 µM)	2 (≈ 7.32 µM)	17.0 ± 1.1	14.7 ± 1.4	>21	18.5 ± 1.9	>21	>21	77	56	100	80	100	100	pKi [4]: 2.52; IC50 [6, 22]: 11 µg/mL (≈ 40.3 µM); pKi [8]: < 3.10; logP at […] [9]: 0.69; HeLa cell, concentration causing microscopically visible change or disruption in about 50% of the cell sheet [10]: 146 µg/mL; solubility at 20 h [11]: 1970 µg/mL (≈ 7210 µM); mean day of animal death ([12]; 10 mg/kg/day i.p.): 13.0 ± 1.1 days; percentage of MSV-infected mice alive at day 21 postinfection ([12]; 10 mg/kg/day i.p.): (42%); percentage of MSV-infected mice without tumors at day 21 postinfection ([12]; 10 mg/kg/day i.p.): (19%); mean day of tumor initiation ([12]; 10 mg/kg/day i.p.): 9.6 ± 1.5 days; percentage of MSV-infected mice without tumors at day 21 postinfection ([12]; 10 mg/kg/day i.p., listed as 4): 19%; mean day of animal death ([12]; 20 mg/kg/day i.p.): 15.9 ± 1.7 days; percentage of MSV-infected mice alive at day 21 postinfection ([12]; 20 mg/kg/day i.p.): (76%); percentage of MSV-infected mice without tumors at day 21 postinfection ([12]; 20 mg/kg/day i.p.): (58%); mean day of tumor initiation ([12]; 20 mg/kg/day i.p.): 12.0 ± 1.3 days; mean day of animal death ([12]; 50 mg/kg/day i.p.): 17.8 ± 2.0 days; percentage of MSV-infected mice alive at day 21 postinfection ([12]; 50 mg/kg/day i.p.): (96%); percentage of MSV-infected mice without tumors at day 21 postinfection ([12]; 50 mg/kg/day i.p.): (84%); mean day of tumor initiation ([12]; 50 mg/kg/day i.p.): 12.5 ± 1.6 days; protection against HSV-induced mortality [15]: full protection
COC1=C(OC)/C(=C/COP(=O)(O)OC[C@H]2O[C@@H](n3cnc4c(N)ncnc43)[C@H](O)[C@@H]2OP(=O)(O)COCCn2cnc3ncnc(N)c32)OC1=O [Compound 25, 9-[[(Z)-4-(ethylidene)-2,3-dimethoxy-Δ^a,b-butenolide]-β-D-furanosyl]adenine-3′-[[1-(adenin-7-yl-ethoxy)methyl]phosphonate]-4,5′-phosphate]	4.2 (≈ 5.45 µM)	–	4.9 (≈ 6.36 µM)	>300	>300	neither a good substrate nor an inhibitor	4.1 (≈ 5.32 µM)	13 (≈ 16.9 µM)	>21	19.6 ± 1.5	>21	>21	>21	>21	100	94	100	100	100	100	HeLa cell, concentration causing microscopically visible change or disruption in about 50% of the cell sheet [16]: 326 µg/mL; IC50 TK+VZV (YS) [17]: 1.7 µg/mL (≈ 2.21 µM); IC50 ([6]; Human alphaherpesvirus 1, Vero): 3 µg/mL (≈ 3.89 µM); Vero cell, concentration causing microscopically visible change or disruption in about 50% of the cell sheet [18]: 350 µg/mL; stability to snake venom phosphodiesterase in words [19]: completely resistant; IC50 [20]: 2 µg/mL (≈ 2.6 µM); logP at […] ([9]; 1-octanol/water (0.10 M phosphate buffer)): 1.37; LD50 ([21]; NMRI, mouse, in vivo, ip): 675 mg/kg; level up to which no toxicity was shown ([21]; mice, intraperitoneal): 400 mg/kg; solubility at 20 h ([11]; phosphate buffer): 5160 µg/mL (≈ 6700 µM); protection against HSV-induced mortality [15]: full protection
Nc1ncnc2ncn(CCOCP(=O)(O)O)c12 [Compound 20, 7-[2-(Phosphonomethoxy)ethyl]adenine]	9.1 (≈ 33.3 µM)	246	7.8 (≈ 28.6 µM)	>300	>300	neither a good substrate nor an inhibitor	21 (≈ 76.9 µM)	27 (≈ 98.8 µM)	15.4 ± 1.3	12.8 ± 1.1	17.8 ± 1.5	15.0 ± 0.9	20.0 ± 1.7	16.8 ± 2.4	70	51	80	62	95	75	pKi [4]: 1.78; IC50 [6, 22]: 20 µg/mL (≈ 73.2 µM); pKi [8]: < 3.10; IC50 [20]: 8 µg/mL (≈ 29.3 µM); logP at […] [9]: 0.95; HeLa cell, concentration causing microscopically visible change or disruption in about 50% of the cell sheet [10]: 236 µg/mL; solubility at 20 h [11]: 2890 µg/mL (≈ 10600 µM)
